Converted amounts (≈) assume the structure as drawn.
Tests used:
[1] = tested on: S. aureus (ATCC #29213) cells; test: Membrane depolarization assay (DiOC2(3), flow cytometry); format: cell-based; conditions: positive control, 10 μL of 500 μM in 1 mL
Experimental: S. aureus (ATCC #29213) cells were grown to log phase (14 h) in Mueller Hinton Broth cation-adjusted (MHB50) and were diluted to 0.07 OD600 with media. One mL aliquots were transferred to 1.5 mL centrifuge tubes and treated with the following in triplicate: 10 μL DMSO (control), 10 μL of 600 μg/mL ecteinamycin, 10 μL of 3.2 mg/mL ecteinamycin (1), 10 μL of 500 μM carbonyl cyanide m-chlorophenythydrazone (CCCP), and 10 μL of 3.2 mg/mL rifampicin. Additionally, each tube received 10 μL of 3 mM DiOC2(3) (3,3′-diethyloxacarbocyanine iodide). The tubes were shaken for 15 minutes at room temperature. The cells were then analyzed with a FACSCalibur (BD Biosciences) flow cytometer and CellQuestPro software (BD Biosciences). Collected data represent the geometric means of fluorescence of 40,000 gated events.
Flow cytometry was used to determine if ecteinamycin, like other polyether ionophore antibiotics, depolarizes cell membranes. 3,3′-diethyloxacarbocyanine iodide (“DiOC2(3)”) fluoresces green in bacterial cells but shifts to red when the cell membrane is depolarized. Therefore, the ratio of red to green fluorescence is indicative of the membrane potential. S. aureus ATCC […] cells were treated with ecteinamycin at concentrations of 6 and 32 μg/mL.
All cells except the DMSO negative control were treated with DiOC2(3) and analyzed by flow cytometry. […]

[2] = tested on: C. difficile; conditions: reported; cited from earlier work
[3] = tested on: MRSA (ATCC #33591); test: MIC, dilution antimicrobial susceptibility test; format: cell-based, Methicillin-resistant Staphylococcus aureus; conditions: Staphylococcus aureus, 18 h
Experimental: (§1) Ecteinamycin was tested for antibacterial activity against C. difficile (ATCC BAA-1870), MRSA (ATCC #33591), MSSA (ATCC #29213), E. coli (ATCC #25922), P. aeruginosa (ATCC #27853), and VRE (ATCC), and MICs were determined using a dilution antimicrobial susceptibility test for aerobic (MRSA, MSSA, E. coli, P. aeruginosa, and VRE) and anaerobic (C. difficile) bacteria. Ecteinamycin was dissolved in DMSO, serially diluted to 10 concentrations (0.0313-32 μg/mL), and tested in a 96-well plate. […] Ecteinamycin and vancomycin were tested in triplicate. Six untreated media controls were included on each plate. For MRSA, MSSA, E. coli, and P. aeruginosa, the plates were incubated at 33° C. for 18 h. For C. difficile, the plate was incubated at 36° C. for 48 h anaerobically and then read visually using a mirror apparatus. All manipulations to the plate were done inside the anaerobe chamber. The MIC was determined as the lowest concentration that inhibited visible growth.

[4] = tested on: MSSA (ATCC #29213); test: MIC, dilution antimicrobial susceptibility test; format: cell-based, Methicillin-sensitive Staphylococcus aureus; conditions: Staphylococcus aureus, 18 h
Experimental: as §1

[5] = in vivo; cited from earlier work

Which “membrane depolarization (ratio of red to green fluorescence)” value [1] does the source give for `N#CC(C#N)=NNc1cccc(Cl)c1` [CCCP, carbonyl cyanide m-chlorophenylhydrazone, reference compound] here?
The value was “membrane depolarization to a greater extent than ecteinamycin”.

For `CO[C@@H]1C[C@@H](C[C@H]2CC[C@H](C)[C@H]([C@@H](C)C(=O)O)O2)O[C@]2(O[C@](C)([C@H]3CC[C@@](C)([C@@H]4O[C@@H]([C@H]5O[C@@](O)(CO)[C@H](C)C[C@@H]5C)C[C@@H]4C)O3)C[C@H]2C)[C@@H]1C` [Nigericin], which MIC [2] is on record?
The MIC was 2.5 ng/mL (≈ 0.00345 µM).

For `CN[C@H](CC(C)C)C(=O)N[C@H]1C(=O)N[C@@H](CC(N)=O)C(=O)N[C@H]2C(=O)N[C@H]3C(=O)N[C@H](C(=O)N[C@H](C(=O)O)c4cc(O)cc(O)c4-c4cc3ccc4O)[C@H](O)c3ccc(c(Cl)c3)Oc3cc2cc(c3O[C@@H]2O[C@H](CO)[C@@H](O)[C@H](O)[C@H]2O[C@H]2C[C@](C)(N)[C@H](O)[C@H](C)O2)Oc2ccc(cc2Cl)[C@H]1O` [Vancomycin, reference compound], which MIC [3] is on record?
Its MIC is 1 µg/mL (≈ 0.69 µM).

What about the MIC [4] of the same compound?
Its MIC is 1 µg/mL (≈ 0.69 µM).

Which oral bioavailability [5] does the source give for `CC[C@@]1([C@@H]2O[C@@H]([C@H]3O[C@@](O)(CO)[C@H](C)C[C@@H]3C)C[C@@H]2C)CC[C@H]([C@]2(C)CC[C@]3(C[C@H](O)[C@@H](C)[C@@H]([C@@H](C)[C@@H](OC)[C@H](C)C(=O)O)O3)O2)O1` [monensin] here?
The oral bioavailability was 30%.

What about the MIC [2] of the same compound?
Its MIC is 500 ng/mL (≈ 0.745 µM).

From patent publication US10660874B2, “Ecteinamycin, compositions and uses thereof” (Wisconsin Alumni Research Foundation, priority 2014, dated 2020)
